The text below walks through data of ChEMBL document CHEMBL5120900, “Structure-Based Discovery of a Series of NSD2-PWWP1 Inhibitors” (J Med Chem, 2022).

Molecules are shown by their SMILES. Active and inactive are the calls of the source. The rule behind the calls is not given here.

Assay [1] has as its target T1, Histone-lysine N-methyltransferase NSD2 (Homo sapiens) (UniProt O96028).
T1 sequence (whole entry): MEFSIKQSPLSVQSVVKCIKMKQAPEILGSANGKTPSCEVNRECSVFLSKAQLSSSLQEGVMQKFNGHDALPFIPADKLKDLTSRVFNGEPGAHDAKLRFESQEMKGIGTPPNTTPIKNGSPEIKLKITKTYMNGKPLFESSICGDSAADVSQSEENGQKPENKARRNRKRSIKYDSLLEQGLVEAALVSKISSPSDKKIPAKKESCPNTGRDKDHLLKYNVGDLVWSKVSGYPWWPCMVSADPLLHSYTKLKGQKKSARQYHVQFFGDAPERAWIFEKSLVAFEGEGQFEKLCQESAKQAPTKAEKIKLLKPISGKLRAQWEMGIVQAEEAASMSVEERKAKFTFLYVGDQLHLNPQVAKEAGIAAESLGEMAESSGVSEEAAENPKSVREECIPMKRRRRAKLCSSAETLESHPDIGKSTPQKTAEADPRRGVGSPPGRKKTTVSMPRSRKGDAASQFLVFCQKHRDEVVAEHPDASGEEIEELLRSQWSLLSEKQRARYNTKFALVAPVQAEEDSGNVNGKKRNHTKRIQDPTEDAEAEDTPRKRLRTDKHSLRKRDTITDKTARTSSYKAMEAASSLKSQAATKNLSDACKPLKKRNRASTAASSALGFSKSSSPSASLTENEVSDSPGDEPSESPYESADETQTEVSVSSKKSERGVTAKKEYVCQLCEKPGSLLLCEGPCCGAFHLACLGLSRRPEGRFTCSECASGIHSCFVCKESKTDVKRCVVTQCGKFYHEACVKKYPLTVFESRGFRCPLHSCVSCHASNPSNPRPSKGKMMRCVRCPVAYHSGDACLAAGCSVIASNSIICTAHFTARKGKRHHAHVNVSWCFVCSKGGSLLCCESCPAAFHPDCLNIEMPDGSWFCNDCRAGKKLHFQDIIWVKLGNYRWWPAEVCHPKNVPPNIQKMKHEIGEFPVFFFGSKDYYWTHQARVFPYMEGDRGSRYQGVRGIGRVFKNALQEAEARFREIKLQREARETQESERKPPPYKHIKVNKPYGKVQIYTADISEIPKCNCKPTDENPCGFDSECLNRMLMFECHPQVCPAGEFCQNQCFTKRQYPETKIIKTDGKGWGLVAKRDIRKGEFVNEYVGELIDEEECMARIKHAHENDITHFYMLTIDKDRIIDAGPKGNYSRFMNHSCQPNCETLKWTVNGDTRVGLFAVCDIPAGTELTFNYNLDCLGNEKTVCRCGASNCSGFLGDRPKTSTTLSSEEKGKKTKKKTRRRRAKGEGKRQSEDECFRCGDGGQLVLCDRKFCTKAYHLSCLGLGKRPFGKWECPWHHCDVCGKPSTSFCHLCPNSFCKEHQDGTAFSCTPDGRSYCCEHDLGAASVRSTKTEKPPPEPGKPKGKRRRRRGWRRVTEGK
The experiment in a line: Inhibition of NSD2 in human KMS-11 cells assessed as decrease in PAK1 gene expression at 10 uM incubated for 72 hrs by RT-PCR analysis. Format: cell-based.

For assay [2], the target named is T1, Histone-lysine N-methyltransferase NSD2 (Homo sapiens). Nature of the assay: Inhibition of NSD2 in human RS4-11 cells assessed as decrease in PAK1 gene expression at 10 uM incubated for 72 hrs by RT-PCR analysis. Format: cell-based.
The target is the same in assay [3]. Nature of the assay: Inhibition of NSD2 in human KMS-11 cells assessed as decrease in RRAS2 gene expression at 10 uM incubated for 72 hrs by RT-PCR analysis. It is filed as cell-based.
Assay [4] has the same target. Nature of the assay: Inhibition of NSD2 in human KMS-11 cells assessed as decrease in TGFA gene expression at 10 uM incubated for 72 hrs by RT-PCR analysis. It is filed as cell-based.
Assay [5] shares this target. The experiment in a line: Inhibition of NSD2 in human RS4-11 cells assessed as decrease in TEMEL2 gene expression at 10 uM incubated for 72 hrs by RT-PCR analysis. It is filed as cell-based.
For assay [6] the target is unchanged. Nature of the assay: Inhibition of NSD2 in human RS4-11 cells assessed as decrease in NCAM1 gene expression at 10 uM incubated for 72 hrs by RT-PCR analysis. Format: cell-based.
In assay [7] the test system is KMS-11. Nature of the assay: Induction of apoptosis in human KMS-11 cells assessed as early apoptotic cells at 5 uM measured after 72 hrs by Annexin V FITC/PI staining based flow cytometry analysis (reference value: 16.5 %). Format: functional.
Assay [8] deals with KMS-11. The experiment in a line: Induction of apoptosis in human KMS-11 cells assessed as necrotic cells at 5 uM measured after 72 hrs by Annexin V FITC/PI staining based flow cytometry analysis (reference value: 0.88%). It is filed as functional.
For assay [9], the system named is KMS-11. Nature of the assay: Induction of apoptosis in human KMS-11 cells assessed as early apoptotic cells at 10 uM measured after 72 hrs by Annexin V FITC/PI staining based flow cytometry analysis (reference value: 16.5 %). Format: functional.
Assay [10] relates to KMS-11. Nature of the assay: Induction of apoptosis in human KMS-11 cells assessed as necrotic cells at 10 uM measured after 72 hrs by Annexin V FITC/PI staining based flow cytometry analysis (reference value: 0.88%). It is filed as functional.
Assay [11] has as its system MV4-11. The experiment in a line: Induction of apoptosis in human MV4-11 cells assessed as viable cells at 5 uM measured after 72 hrs by Annexin V FITC/PI staining based flow cytometry analysis (reference value: 91.7%). Format: functional. The conditions noted are these: read-out: Activity.
Assay [12] deals with MV4-11. Nature of the assay: Induction of apoptosis in human MV4-11 cells assessed as early apoptotic cells at 5 uM measured after 72 hrs by Annexin V FITC/PI staining based flow cytometry analysis (reference value: 4.58 %). It is filed as functional.
The test system of assay [13] is MV4-11. The experiment in a line: Induction of apoptosis in human MV4-11 cells assessed as viable cells at 10 uM measured after 72 hrs by Annexin V FITC/PI staining based flow cytometry analysis (reference value: 91.7%). Format: functional. As to conditions: read-out: Activity.
Assay [14] relates to MV4-11. The experiment in a line: Induction of apoptosis in human MV4-11 cells assessed as early apoptotic cells at 10 uM measured after 72 hrs by Annexin V FITC/PI staining based flow cytometry analysis (reference value: 4.58 %). Format: functional.
Assay [15] deals with KMS-11. The experiment in a line: Cell cycle arrest in human KMS-11 cells assessed as increase in accumulation of G0/G1 phase at 5 to 10 uM measured after 24 hrs by PI staining based flow cytometric analysis. The conditions noted are these: dose 5-10 µM. It is filed as functional.

As for `Cc1cc(CN2CCC(N)CC2)cc(C)c1-c1ncn(C)c1-c1ccc(C#N)c2ccccc12`, the inhibition entry in [1], in assay [2], in [3], in assay [4], in assay [5] and in [6] was “Active” each time. The Activity came out at 21.1% in the assay with KMS-11 [7]; 0.69% in the assay on KMS-11 [8]; 28.7% with KMS-11 [9]; 1.86% with KMS-11 [10]; 6.26% with MV4-11 [12]; 41.3% in the assay on MV4-11 [14]. Moreover, the viability at 5 µM with MV4-11 [11] came to 91%. Besides, the viability at 10 µM in the assay with MV4-11 [13] was determined as 37.3%. In addition, in the assay on KMS-11 [15], the result was Active.
